Source: patent US20260092057A1, “BCL-XL/BCL-2 DEGRADERS AND USES THEREOF” (Kymera Therapeutics, Inc., priority 2022, published 2026)
Where two headings read alike, the source gives them in different places.

What was measured:
Assay type in all cases: cell-based
[1] = tested on: MOLT-4 cells; test: CTG (CellTiter-Glo) cell viability assay, MOLT-4; conditions: MOLT-4, 3 day, read-out: CTG Cell Viability Assay - MOLT-4 3 day: Average external-IC50
In short: (§1)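 Cells seeded at 10,000 per well, then exposed to a 9-point 1:3 dilution series from 10 µM top concentration (0.2% DMSO) for 3 days at 37 °C, 5% CO2. Viability measured by CellTiter-Glo luminescence; IC50 from a three-parameter logistic fit.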

[2] = tested on: Caki-2 cells; test: CTG (CellTiter-Glo) cell viability assay, Caki-2; conditions: Caki-2, 3-day, read-out: CTG Chempartner/PHA- Caki-2 3-day: Average external-IC50
In short: as §1

[3] = target: T1, BCL-XL (Homo sapiens, UniProt Q07817); test: BCL-XL degradation assay in MOLT-4 cells (ELISA, 6 h); conditions: for DC50: read-out: Bcl-xL ELISA in MOLT-4 degradation 6 h: External Abs-DC50
T1 construct: BCL-XL degradation results in MOLT-4 cells for compounds of the invention; endogenous in cells; host or cells: MOLT-4
T1 sequence (Q07817 whole entry): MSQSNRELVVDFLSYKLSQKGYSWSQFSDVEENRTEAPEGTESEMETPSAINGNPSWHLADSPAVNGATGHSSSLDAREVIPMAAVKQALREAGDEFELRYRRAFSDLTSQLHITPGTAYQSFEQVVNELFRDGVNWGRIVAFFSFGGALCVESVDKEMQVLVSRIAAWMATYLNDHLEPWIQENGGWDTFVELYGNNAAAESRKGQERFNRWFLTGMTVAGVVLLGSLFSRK

| SMILES | IC50 ([1]; Homo sapiens, MOLT-4, 72 h) [nM] | IC50 ([2]; Homo sapiens, CAKI-2, 72 h) [nM] | Dmax [3] [%] | DC50 [3] [nM] | IC50 [1] [nM] | IC50 [2] [nM] | Bcl-xL ELISA in MOLT-4 degradation 6 h: Dmax % [3] |
| --- | --- | --- | --- | --- | --- | --- | --- |
| Cc1ncsc1-c1ccc([C@H](C)NC(=O)[C@@H]2C[C@@H](O)CN2C(=O)[C@@H](NC(=O)CCCCCC(=O)N2CCN(CCCNc3ccc(S(=O)(=O)NC(=O)c4ccc(N5CCN(Cc6ccccc6-c6ccc(Cl)cc6)CC5)cc4Oc4cnc5[nH]ccc5c4)cc3S(=O)(=O)C(F)(F)F)CC2)C(C)(C)C)cc1 [I-51] | 1000 to 3000 | > 30000 | 50 to 75 | 100 to 500 | – | – | – |
| Cc1ncsc1-c1ccc([C@H](C)NC(=O)[C@@H]2C[C@@H](O)CN2C(=O)[C@@H](NC(=O)CCCCCCC(=O)N2CCN(Cc3ccc(-c4ccc(Cl)cc4)c([C@H](O)C4CCN(c5ccc(C(=O)NS(=O)(=O)c6ccc(N[C@H](CCN(C)CCO)CSc7ccccc7)c(S(=O)(=O)C(F)(F)F)c6)cc5)CC4)c3)CC2)C(C)(C)C)cc1 [I-25] | 100 to 1000 | > 30000 | > 75 | 10 to 100 | – | – | – |
| Cc1ncsc1-c1ccc([C@H](C)NC(=O)[C@@H]2C[C@@H](O)CN2C(=O)[C@@H](NC(=O)CCCCCC(=O)N2CCN(CC[C@H](CSc3ccccc3)Nc3ccc(S(=O)(=O)NC(=O)c4ccc(N5CCN(CC6=C(c7ccc(Cl)cc7)CC(C)(C)CC6)CC5)cc4)cc3S(=O)(=O)C(F)(F)F)CC2)C(C)(C)C)cc1 [I-42] | < 100 | 5000 to 10000 | > 75 | 10 to 100 | – | – | – |
| Cc1ncsc1-c1ccc([C@H](C)NC(=O)[C@@H]2C[C@@H](O)CN2C(=O)[C@@H](NC(=O)CCCCCCC(=O)N2CCN(CCCNc3ccc(S(=O)(=O)NC(=O)c4ccc(N5CCN(CC6=C(c7ccc(Cl)cc7)CC(C)(C)CC6)CC5)cc4Oc4cnc5[nH]ccc5c4)cc3S(=O)(=O)C(F)(F)F)CC2)C(C)(C)C)cc1 [I-81] | < 100 | > 30000 | > 75 | 10 to 100 | – | – | – |
| Cc1ncsc1-c1ccc([C@H](C)NC(=O)[C@@H]2C[C@@H](O)CN2C(=O)[C@@H](NC(=O)CCCCCC(=O)N2CCN(CC[C@H](CSc3ccccc3)Nc3ccc(S(=O)(=O)NC(=O)c4ccc(NC5CCOCC5)cc4)cc3S(=O)(=O)C(F)(F)F)CC2)C(C)(C)C)cc1 [I-39] | > 3000 | > 30000 | 50 to 75 | 100 to 500 | – | – | – |
| C#Cc1ccc([C@H](CO)NC(=O)[C@@H]2C[C@@H](O)CN2C(=O)[C@@H](NC(=O)CCCCCC(=O)N2CCN(CC[C@H](CSc3ccccc3)Nc3ccc(S(=O)(=O)NC(=O)c4ccc(N5CCN([C@@H](O)c6ccccc6-c6ccc(Cl)cc6)CC5)cc4)cc3S(=O)(=O)C(F)(F)F)CC2)C(C)(C)C)cc1 [I-135] | < 100 | 10000 to 30000 | > 75 | 10 to 100 | – | – | – |
| Cc1ncsc1-c1ccc(CNC(=O)[C@@H]2C[C@@H](O)CN2C(=O)[C@@H](NC(=O)CCCCCC(=O)N2CC3(CN(CC[C@H](CSc4ccccc4)Nc4ccc(S(=O)(=O)NC(=O)c5ccc(N6CCN([C@@H](O)c7ccccc7-c7ccc(Cl)cc7)CC6)cc5)cc4S(=O)(=O)C(F)(F)F)C3)C2)C(C)(C)C)cc1 [I-125] | 100 to 1000 | > 30000 | 50 to 75 | 10 to 100 | – | – | – |
| Cc1ncsc1-c1ccc([C@H](C)NC(=O)[C@@H]2C[C@@H](O)CN2C(=O)[C@@H](NC(=O)CCCCCC(=O)N2CCN(CC[C@H](CSc3ccccc3)Nc3ccc(S(=O)(=O)NC(=O)c4ccc(N5CCN(Cc6ccccc6-c6ccc(Cl)cc6)CC5)cc4)cc3[N+](=O)[O-])CC2)C(C)(C)C)cc1 [I-35] | > 3000 | > 30000 | > 75 | 10 to 100 | – | – | – |
| Cc1ncsc1-c1ccc([C@H](C)NC(=O)[C@@H]2C[C@@H](O)CN2C(=O)[C@@H](NC(=O)CCCCCCC(=O)N2CCN(C[C@]3(C)CCC(c4ccc(Cl)cc4)=C(CN4CCN(c5ccc(C(=O)NS(=O)(=O)c6ccc(NCCCN7CCOCC7)c(S(=O)(=O)C(F)(F)F)c6)c(Oc6cnc7[nH]ccc7c6)c5)CC4)C3)CC2)C(C)(C)C)cc1 [I-65] | < 100 | 10000 to 30000 | 50 to 75 | 10 to 100 | – | – | – |
| Cc1ncsc1-c1ccc([C@H](C)NC(=O)[C@@H]2C[C@@H](O)CN2C(=O)[C@@H](NC(=O)CCCCC(=O)N2CCN(CCCNc3ccc(S(=O)(=O)NC(=O)c4ccc(N5CCN(CC6=C(c7ccc(Cl)cc7)CC(C)(C)CC6)CC5)cc4Oc4cnc5[nH]ccc5c4)cc3S(=O)(=O)C(F)(F)F)CC2)C(C)(C)C)cc1 [I-63] | 1000 to 3000 | > 30000 | 50 to 75 | 100 to 500 | – | – | – |
| Cc1ncsc1-c1ccc([C@H](C)NC(=O)[C@@H]2C[C@@H](O)CN2C(=O)[C@@H](NC(=O)CCCCCC(=O)N2CCN(CC[C@H](CSc3ccccc3)Nc3ccc(S(=O)(=O)NC(=O)c4ccc(N5CCOCC5)cc4)cc3S(=O)(=O)C(F)(F)F)CC2)C(C)(C)C)cc1 [I-36] | > 3000 | > 30000 | < 50 | 500 to 1000 | – | – | – |
| Cc1ncsc1-c1ccc([C@H](C)NC(=O)[C@@H]2C[C@@H](O)CN2C(=O)[C@@H](NC(=O)CCCCCC(=O)N2CCCN(CC[C@H](CSc3ccccc3)Nc3ccc(S(=O)(=O)NC(=O)c4ccc(N5CCN([C@@H](O)c6ccccc6-c6ccc(Cl)cc6)CC5)cc4)cc3S(=O)(=O)C(F)(F)F)CC2)C(C)(C)C)cc1 [I-124] | < 100 | 10000 to 30000 | 50 to 75 | < 10 | – | – | – |
| Cc1ncsc1-c1ccc(CNC(=O)[C@@H]2C[C@@H](O)CN2C(=O)[C@@H](NC(=O)CCCCCCC(=O)N2CCN(C[C@]3(C)CCC(c4ccc(Cl)cc4)=C(CN4CCN(c5ccc(C(=O)NS(=O)(=O)c6ccc(NCCCN7CCOCC7)c(S(=O)(=O)C(F)(F)F)c6)c(Oc6cnc7[nH]ccc7c6)c5)CC4)C3)CC2)C(C)(C)C)cc1 [I-134] | – | – | – | 500 to 1000 | 100 to 1000 | < 5000 | C (C (<50%)) |
| Cc1ncsc1-c1ccc([C@H](C)NC(=O)[C@@H]2C[C@@H](O)CN2C(=O)[C@@H](NC(=O)CCCCCC(=O)N2CCN(CC[C@H](CSc3ccccc3)Nc3ccc(S(=O)(=O)NC(=O)c4ccc(N5CCN([C@@H](O)c6ccccc6-c6ccc(Cl)cc6)CC5)cc4)cc3S(=O)(=O)C(F)(F)F)CC2)C(C)(C)C)cc1 [I-121] | < 100 | 10000 to 30000 | > 75 | < 10 | – | – | – |
| Cc1ncsc1-c1ccc([C@H](C)NC(=O)[C@@H]2C[C@@H](O)CN2C(=O)[C@@H](NC(=O)CCCCCCC(=O)N2CCN(Cc3ccc(-c4ccc(Cl)cc4)c(CN4CCN(c5ccc(C(=O)NS(=O)(=O)c6ccc(N[C@H](CCN(C)C)CSc7ccccc7)c([N+](=O)[O-])c6)cc5)CC4)c3)CC2)C(C)(C)C)cc1 [I-5] | 100 to 1000 | > 30000 | > 75 | 10 to 100 | – | – | – |
| Cc1ncsc1-c1ccc([C@H](C)NC(=O)[C@@H]2C[C@@H](O)CN2C(=O)[C@@H](NC(=O)CCCCCCN(C)CC[C@H](CSc2ccccc2)Nc2ccc(S(=O)(=O)NC(=O)c3ccc(N4CCN(Cc5ccccc5-c5ccc(Cl)cc5)CC4)cc3)cc2[N+](=O)[O-])C(C)(C)C)cc1 [I-14] | > 3000 | > 30000 | < 50 | 500 to 1000 | – | – | – |
| Cc1ncsc1-c1ccc([C@H](C)NC(=O)[C@@H]2C[C@@H](O)CN2C(=O)[C@@H](NC(=O)C2CCN(c3ccc(NC(=O)c4ccc(-c5ccc(Cl)cc5)c([C@H](O)C5CCN(c6ccc(C(=O)NS(=O)(=O)c7ccc(N[C@H](CCN(C)CCO)CSc8ccccc8)c(S(=O)(=O)C(F)(F)F)c7)cc6)CC5)c4)cc3)CC2)C(C)(C)C)cc1 (single isomer, unassigned) [I-27] | > 3000 | > 30000 | < 50 | 500 to 1000 | – | – | – |
| Cc1ncsc1-c1ccc([C@H](C)NC(=O)[C@@H]2C[C@@H](O)CN2C(=O)[C@@H](NC(=O)CCCCCCCC(=O)N2CCN(Cc3ccc(-c4ccc(Cl)cc4)c(CN4CCN(c5ccc(C(=O)NS(=O)(=O)c6ccc(N[C@H](CCN(C)C)CSc7ccccc7)c([N+](=O)[O-])c6)cc5)CC4)c3)CC2)C(C)(C)C)cc1 [I-8] | 100 to 1000 | > 30000 | 50 to 75 | 100 to 500 | – | – | – |
| Cc1ncsc1-c1ccc([C@H](C)NC(=O)[C@@H]2C[C@@H](O)CN2C(=O)[C@@H](NC(=O)CCCCCC(=O)N2CCN(CCCNc3ccc(S(=O)(=O)NC(=O)c4ccc(N5CCN(CC6=C(c7ccc(Cl)cc7)CCC(C)(C)C6)CC5)cc4Oc4cnc5[nH]ccc5c4)cc3S(=O)(=O)C(F)(F)F)CC2)C(C)(C)C)cc1 [I-52] | 100 to 1000 | > 30000 | 50 to 75 | 100 to 500 | – | – | – |
